Read-outs that look alike come from different tables or passages of the source.
Experiments:
T cells = assay: T cell proliferation in response to costimulation of CD3+CD28; format: cell-based; details: Homo sapiens, highest tested concentration 10 μM, read-out: Half-maximal inhibition of thymidine incorporation (anti-CD3- and anti-CD28-induced T cell proliferation)
Protocol: T cell proliferation in response to costimulation of CD3+CD28 was measured. T cells were purified from healthy human blood by negative selection using antibody coated magnetic beads according to the manufacturer's protocol (Dynal) and resuspended in RPMI. The cells were treated with either DMSO or a serial dilution of D-000 in DMSO and plated at 1×10^5 cells/well on a 96-well plate precoated with goat antimouse IgG. Mouse monoclonal anti-CD3 and anti-CD28 antibodies were then added to each well at 0.2 ng/mL and 0.2 μg/mL, respectively. The plate was incubated at 37° C. for 24 hr and [^3H]-thymidine (1 μCi/well) was added. After another 18 hr incubation the cells were harvested with an automatic cell harvester, washed and the incorporated radioactivity was quantified.

KU812 = assay: Cancer cell proliferation, [3H]-thymidine incorporation, KU812; format: cell-based; details: Homo sapiens, 120 h; KU812 line; five days; read-out: EC50, inhibition of cell growth
Protocol: The effect of compounds of the invention on cancer cell proliferation was evaluated by testing one of the compounds against a panel of Chronic Myeloid Leukemia (CML) cell lines, including KU812, RWLeu4, K562, and MEG-01.
The inhibitory activity of the compound (D-000, dissolved in DMSO) was determined as follows. The tested compound was added in a series of concentrations (0.001 μM to 20 μM) to 96-well microtiter plates with cells (1000 to 5000 cells/well). Plates were incubated for five days at 37° C. during which the control cultures without test compound were able to undergo at least two cell-division cycles. Cell growth was measured by incorporation of [^3H]-thymidine for eighteen hours added at days three, four, and five. Cells were transferred to a filter, washed and the radioactivity counted using a Matrix 96 beta counter (Packard). The percentage of cell growth was measured as follows: […]

PI3Kβ [1] = target: T1, PI3Kβ (Homo sapiens, UniProt P42338); assay: Biochemical assay using 200 μM ATP, Beta
T1 construct: His tag (pFastbac HTa vector) (N); FLAG (N); made in house; host or cells: Sf21 insect cells (baculovirus)
T1 sequence (P42338 whole entry): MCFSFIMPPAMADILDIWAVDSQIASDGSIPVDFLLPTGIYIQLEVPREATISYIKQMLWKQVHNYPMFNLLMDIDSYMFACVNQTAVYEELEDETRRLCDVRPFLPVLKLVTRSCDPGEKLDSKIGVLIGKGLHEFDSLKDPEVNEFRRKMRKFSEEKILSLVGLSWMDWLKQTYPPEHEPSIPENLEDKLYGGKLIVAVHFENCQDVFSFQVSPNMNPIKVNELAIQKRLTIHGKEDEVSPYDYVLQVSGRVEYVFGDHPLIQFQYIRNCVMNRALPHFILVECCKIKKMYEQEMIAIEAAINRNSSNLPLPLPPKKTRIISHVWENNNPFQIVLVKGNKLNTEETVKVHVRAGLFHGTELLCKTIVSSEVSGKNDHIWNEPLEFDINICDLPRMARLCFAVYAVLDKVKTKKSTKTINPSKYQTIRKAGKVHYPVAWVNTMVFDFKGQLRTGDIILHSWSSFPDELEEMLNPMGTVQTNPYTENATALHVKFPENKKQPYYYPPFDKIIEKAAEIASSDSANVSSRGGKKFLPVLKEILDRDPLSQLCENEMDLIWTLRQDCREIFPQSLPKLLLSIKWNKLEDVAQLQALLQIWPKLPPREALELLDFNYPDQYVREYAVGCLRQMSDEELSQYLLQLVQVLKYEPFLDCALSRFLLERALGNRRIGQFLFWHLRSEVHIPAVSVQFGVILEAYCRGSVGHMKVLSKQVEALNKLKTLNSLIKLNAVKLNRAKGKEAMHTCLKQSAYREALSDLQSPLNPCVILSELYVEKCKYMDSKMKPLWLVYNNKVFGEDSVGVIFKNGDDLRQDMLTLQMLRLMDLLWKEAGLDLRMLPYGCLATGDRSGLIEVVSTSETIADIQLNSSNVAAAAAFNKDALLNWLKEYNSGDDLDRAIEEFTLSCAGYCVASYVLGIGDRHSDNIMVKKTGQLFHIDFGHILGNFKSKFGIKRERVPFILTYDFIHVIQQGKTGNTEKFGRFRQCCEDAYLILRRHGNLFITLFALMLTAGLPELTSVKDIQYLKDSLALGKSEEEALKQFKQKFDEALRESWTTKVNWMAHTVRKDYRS
T1 sequence (P27986 whole entry partner): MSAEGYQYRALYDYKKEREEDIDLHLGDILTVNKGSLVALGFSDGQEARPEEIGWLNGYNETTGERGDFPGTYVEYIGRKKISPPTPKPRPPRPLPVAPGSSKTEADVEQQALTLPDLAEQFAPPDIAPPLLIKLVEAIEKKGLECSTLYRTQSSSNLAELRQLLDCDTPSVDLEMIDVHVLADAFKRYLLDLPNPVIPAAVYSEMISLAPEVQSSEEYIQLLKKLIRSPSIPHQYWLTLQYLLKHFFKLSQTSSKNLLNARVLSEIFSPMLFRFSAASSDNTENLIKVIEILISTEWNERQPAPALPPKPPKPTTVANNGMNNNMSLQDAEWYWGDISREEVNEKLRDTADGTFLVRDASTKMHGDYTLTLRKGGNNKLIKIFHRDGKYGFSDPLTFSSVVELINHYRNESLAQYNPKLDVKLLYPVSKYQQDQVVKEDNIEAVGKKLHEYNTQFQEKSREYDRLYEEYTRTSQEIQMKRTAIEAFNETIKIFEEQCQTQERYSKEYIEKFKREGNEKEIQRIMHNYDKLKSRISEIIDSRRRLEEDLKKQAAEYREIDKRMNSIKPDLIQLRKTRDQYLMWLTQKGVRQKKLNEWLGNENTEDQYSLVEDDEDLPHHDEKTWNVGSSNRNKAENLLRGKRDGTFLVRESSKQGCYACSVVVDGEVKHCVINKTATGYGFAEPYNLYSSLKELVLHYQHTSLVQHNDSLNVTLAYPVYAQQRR
Protocol: PI3Kδ catalyzes a phosphotransfer from γ-[^32P]ATP to PIP2/PS liposomes at the D3′ position of the PIP2 lipid inositol ring. This reaction is MgCl2 dependent and is quenched in high molarity potassium phosphate buffer pH 8.0 containing 30 mM EDTA. […] The reaction products (and all unlabelled products) are transferred to a 96-well, prewetted PVDF filter plate, filtered, and washed in high molarity potassium phosphate. Scintillant is added to the dried wells and the incorporated radioactivity is quantitated.
This dilution established a final concentration of 200 μM ATP in the reaction volume. The reaction was stopped with 150 μL quench buffer (1.0 M potassium phosphate pH 8.0, 30 mM EDTA). A portion of the quenched solution (180 μL) was then transferred to a PVDF filter plate (Millipore # MAIP NOB prewetted with sequential 200 μL washes of 100% methanol, water, and finally 1.0 M potassium phosphate pH 8.0 wash buffer).
The PVDF filter plate was aspirated under moderate vacuum (2-5 mm Hg), washed with 5×200 μL of wash buffer, and then dried by aspiration. The filter was subsequently blotted, allowed to air dry completely, and inserted into a Wallac counting cassette with 50 μL of Ecoscint scintillation cocktail added per well.
Subsequent selectivity assays were done similarly using the same 3× substrate stocks except they contained 0.05 mCi/mL γ[^32P]ATP and 3 mM PIP2. Subsequent selectivity assays also used the same 3× enzyme stocks, except they now contained 3 nM of any given PI3K isoform.
For all selectivity assays, the test compounds were weighed out and dissolved into 10-50 mM stocks in 100% DMSO (depending on their respective solubilities) and stored at −20° C. […] From these dilutions, 20 μL was added into the assay wells alongside water blanks used for the enzyme (positive) control and the no enzyme (background) control.
This selectivity protocol is identical to that described above, except the 3× stock ATP concentration was 600 μM.

PI3Kβ [2] = target: T1, PI3Kβ; assay: Biochemical assay of PI3K potency and selectivity using 20 μM ATP, Beta; details: for Beta/Delta Ratio / remaining activity at 100 µM: 20 μM ATP; for Beta/Delta Ratio: ratio of IC50 values, > = hypothetical ratio with 100 μM substituted for the missing IC50; for remaining activity at 100 µM: read-out: Beta: percent activity remaining at 100 μM, 100 μM compound did not inhibit by at least 50%
How it was run: (§1)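 Radioactive phosphate transfer from γ-[32P]ATP onto PIP2/PS liposomes was measured in 20 mM HEPES, pH 7.4, at 20 μM ATP. The 3× substrate stock contained […] and 6 μM PIP2/PS.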

PI3Kα = target: T2, PI3Kα (Homo sapiens, UniProt P42336); assay: Biochemical assay using 200 μM ATP, Alpha
T2 construct: His tag (pFastbac HTb vector) (N); FLAG; made in house; host or cells: Sf21 insect cells (baculovirus)
T2 sequence (P42336 whole entry): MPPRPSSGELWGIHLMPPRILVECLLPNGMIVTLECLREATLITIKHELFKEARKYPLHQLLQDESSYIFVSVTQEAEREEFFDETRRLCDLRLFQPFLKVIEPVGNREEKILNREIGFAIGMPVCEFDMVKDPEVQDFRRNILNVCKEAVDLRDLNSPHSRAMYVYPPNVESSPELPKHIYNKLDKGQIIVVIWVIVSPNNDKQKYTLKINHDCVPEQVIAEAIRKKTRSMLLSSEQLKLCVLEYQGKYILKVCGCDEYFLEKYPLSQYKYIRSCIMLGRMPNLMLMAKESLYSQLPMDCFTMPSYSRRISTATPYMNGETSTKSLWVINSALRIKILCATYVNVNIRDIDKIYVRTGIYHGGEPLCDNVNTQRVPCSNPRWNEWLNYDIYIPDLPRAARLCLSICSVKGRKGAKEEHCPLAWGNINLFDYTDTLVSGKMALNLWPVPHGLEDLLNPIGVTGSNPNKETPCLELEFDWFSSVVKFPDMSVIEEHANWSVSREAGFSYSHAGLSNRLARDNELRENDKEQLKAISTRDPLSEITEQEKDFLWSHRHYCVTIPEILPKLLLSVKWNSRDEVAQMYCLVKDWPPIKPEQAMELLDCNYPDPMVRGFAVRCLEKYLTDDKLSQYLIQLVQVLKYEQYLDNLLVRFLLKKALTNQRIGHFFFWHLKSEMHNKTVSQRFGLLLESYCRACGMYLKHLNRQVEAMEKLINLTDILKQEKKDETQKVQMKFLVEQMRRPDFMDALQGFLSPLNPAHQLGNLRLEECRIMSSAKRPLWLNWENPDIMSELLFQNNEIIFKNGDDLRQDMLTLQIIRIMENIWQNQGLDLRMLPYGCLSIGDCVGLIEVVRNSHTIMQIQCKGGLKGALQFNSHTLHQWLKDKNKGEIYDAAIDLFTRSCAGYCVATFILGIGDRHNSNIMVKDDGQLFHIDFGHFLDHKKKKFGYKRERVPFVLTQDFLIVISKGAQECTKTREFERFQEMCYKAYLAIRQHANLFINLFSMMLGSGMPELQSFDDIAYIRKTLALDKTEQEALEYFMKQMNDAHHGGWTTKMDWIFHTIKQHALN
T2 sequence (P27986 whole entry partner): as the sequence (P27986 whole entry partner) above

osteoclasts = assay: Osteoclast function, pit depths on dentine slices; format: cell-based, mouse
Protocol: To analyze the effect of the PI3Kδ inhibitor D-000 on osteoclasts, mouse bone marrow cells were isolated and differentiated them to osteoclasts by treating the cells with Macrophage Colony Stimulating Factor^−1 (mCSF^−1) and Osteoprotegerin Ligand (OPGL) in serum-containing medium (αMEM with 10% heat-inactivated FBS; Sigma) for 3 days. On day four, when the osteoclasts had developed, the medium was removed and cells were harvested. The osteoclasts were plated on dentine slices at 10^5 cells/well in growth medium, i.e., αMEM containing 1% serum and 2% BSA with […] and 10 ng/mL mCSF-1. After 3 hr, the medium was changed to 1% serum and 1% BSA, with or without osteopontin (25 μg/mL) and the PI3K inhibitors (100 nM). The medium was changed every 24 hours with fresh osteopontin and the inhibitors. At 72 hr, the medium was removed, and the dentine surfaces were washed with water to remove cell debris and stained with acid hematoxylin. Excess stain was washed and the pit depths were quantitated using confocal microscopy.

PI3Kγ = target: T3, PI3Kγ (Homo sapiens, UniProt P48736); assay: Biochemical assay of PI3K potency and selectivity using 20 μM ATP, Gamma; details: for Gamma/Delta Ratio: ratio of IC50 values
T3 construct: His tag (pFastbac HTb vector) (N); FLAG (N); made in house; host or cells: Sf21 insect cells (baculovirus)
T3 sequence (P48736 whole entry): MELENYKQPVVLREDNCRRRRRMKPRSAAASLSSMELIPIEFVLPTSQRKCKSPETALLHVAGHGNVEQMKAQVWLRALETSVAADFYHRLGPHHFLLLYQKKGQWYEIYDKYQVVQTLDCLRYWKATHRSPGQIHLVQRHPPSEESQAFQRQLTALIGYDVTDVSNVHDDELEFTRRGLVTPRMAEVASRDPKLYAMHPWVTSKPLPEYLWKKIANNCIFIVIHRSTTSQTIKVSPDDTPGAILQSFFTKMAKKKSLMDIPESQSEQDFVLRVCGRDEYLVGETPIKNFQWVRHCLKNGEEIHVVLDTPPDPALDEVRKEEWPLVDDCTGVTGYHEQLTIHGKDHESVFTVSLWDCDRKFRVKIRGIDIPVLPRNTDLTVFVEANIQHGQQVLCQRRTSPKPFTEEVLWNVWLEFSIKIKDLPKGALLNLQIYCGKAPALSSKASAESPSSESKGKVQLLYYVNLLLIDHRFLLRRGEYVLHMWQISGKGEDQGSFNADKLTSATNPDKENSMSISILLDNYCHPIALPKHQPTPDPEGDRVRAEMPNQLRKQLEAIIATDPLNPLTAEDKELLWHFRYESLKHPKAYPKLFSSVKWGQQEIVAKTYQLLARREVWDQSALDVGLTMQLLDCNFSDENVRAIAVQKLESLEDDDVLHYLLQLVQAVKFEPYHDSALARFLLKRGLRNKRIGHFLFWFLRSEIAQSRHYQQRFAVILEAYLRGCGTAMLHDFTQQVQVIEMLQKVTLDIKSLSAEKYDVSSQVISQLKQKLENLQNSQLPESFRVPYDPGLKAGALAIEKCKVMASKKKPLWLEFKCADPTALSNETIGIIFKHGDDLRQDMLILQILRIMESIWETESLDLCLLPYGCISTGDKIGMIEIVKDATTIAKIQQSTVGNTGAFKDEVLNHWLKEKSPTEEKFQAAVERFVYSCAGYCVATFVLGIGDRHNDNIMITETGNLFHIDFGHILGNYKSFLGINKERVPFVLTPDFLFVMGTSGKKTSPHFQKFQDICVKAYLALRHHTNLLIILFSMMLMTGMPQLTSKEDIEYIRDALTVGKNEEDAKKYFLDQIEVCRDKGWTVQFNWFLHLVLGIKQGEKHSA
Source text: Recombinant baculoviruses containing the above clones were generated using manufacturer's recommended protocol (Life Technologies). Baculoviruses expressing His-tagged p110α, p110γ, or p110δ catalytic subunit and p85 subunit were coinfected into Sf21 insect cells. To enrich the heterodimeric enzyme complex, an excess amount of baculovirus expressing p85 subunit was infected, and the His-tagged p110 catalytic subunit complexed with p85 was purified on nickel affinity column. […] In an alternate approach, p101 can be cloned into baculovirus, to permit coexpression with its preferred binding partner p110γ. […]

PI3Kδ = PI3Kδ (Homo sapiens, UniProt O00329, S253N); assay: Biochemical assay of PI3K potency and selectivity using 20 μM ATP, Delta; parameters: His tag (pFastbac HTb vector) (N); FLAG; made in house; host or cells: Sf21 insect cells (baculovirus)
PI3Kδ, sequence (O00329 whole entry S253N): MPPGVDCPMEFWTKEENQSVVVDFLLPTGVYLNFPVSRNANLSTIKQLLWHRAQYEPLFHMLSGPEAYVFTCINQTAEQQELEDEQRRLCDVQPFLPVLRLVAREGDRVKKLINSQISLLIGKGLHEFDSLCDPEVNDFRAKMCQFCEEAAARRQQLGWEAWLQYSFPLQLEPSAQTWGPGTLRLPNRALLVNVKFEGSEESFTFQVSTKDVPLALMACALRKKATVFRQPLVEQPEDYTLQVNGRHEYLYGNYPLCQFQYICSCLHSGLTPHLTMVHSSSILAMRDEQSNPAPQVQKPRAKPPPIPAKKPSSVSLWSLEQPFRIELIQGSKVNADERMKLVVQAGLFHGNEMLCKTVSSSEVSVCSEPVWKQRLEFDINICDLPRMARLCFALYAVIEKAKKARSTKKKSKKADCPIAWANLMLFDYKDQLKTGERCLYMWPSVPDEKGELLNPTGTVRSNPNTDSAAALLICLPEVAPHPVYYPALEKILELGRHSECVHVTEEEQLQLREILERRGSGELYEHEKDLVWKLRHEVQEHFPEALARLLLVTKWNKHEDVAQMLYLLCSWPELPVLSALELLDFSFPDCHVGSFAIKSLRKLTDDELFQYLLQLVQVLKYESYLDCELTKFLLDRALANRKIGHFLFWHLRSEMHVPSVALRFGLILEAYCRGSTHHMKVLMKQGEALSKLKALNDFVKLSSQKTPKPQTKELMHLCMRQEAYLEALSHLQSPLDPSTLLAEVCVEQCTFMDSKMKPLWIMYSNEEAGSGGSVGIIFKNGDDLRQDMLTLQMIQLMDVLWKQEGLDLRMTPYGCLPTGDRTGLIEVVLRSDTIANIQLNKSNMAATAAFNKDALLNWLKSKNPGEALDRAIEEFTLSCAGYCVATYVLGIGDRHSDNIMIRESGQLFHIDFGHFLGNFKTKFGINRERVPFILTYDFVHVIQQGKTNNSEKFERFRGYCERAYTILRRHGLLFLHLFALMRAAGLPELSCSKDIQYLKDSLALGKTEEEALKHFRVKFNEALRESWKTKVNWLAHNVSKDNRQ
PI3Kδ, sequence (P27986 whole entry partner): as the sequence (P27986 whole entry partner) above
How it was run: as §1

basophils = assay: Basophil histamine release assay; format: cell-based, human
Protocol: Assessment of the effect of a compound of the invention on basophil function was tested using a conventional histamine release assay, generally in accordance with the method described in Miura et al., J Immunol, 162:4198-206 (1999). Briefly, enriched basophils were preincubated with test compounds at several concentrations from 0.1 nM to 1,000 nM, for 10 min at 37° C. Then, polyclonal goat antihuman IgE (0.1 μg/mL) or fMLP was added, and allowed to incubate for an additional 30 min. Histamine released into the supernatant was measured using an automated fluorometric technique. Two compounds were tested, shown below.

[3] = 20 μM ATP, read-out: Delta IC50

| Compound | IC50 (T cells) | EC50 (KU812) | Beta/Delta Ratio (PI3Kβ [1]) | Beta/Delta Ratio (PI3Kβ [2]) | IC50 (PI3Kβ [2]; Example 2 assay conditions, limit of 100 μM compound, read-out: IC50, β isoform of PI3K (FIG. 1)) | remaining activity at 100 µM (PI3Kβ [2]) | Alpha/Delta Ratio (PI3Kα) | Effect on osteoclast activity (osteoclasts; 100 nM) | Pit depths (osteoclast activity), Table 1 (osteoclasts; inhibitor 100 nM + osteopontin (OPN) 25 μg/mL, 72 hr, two experiments, OPN alone 10 ± 0.5 and 9 ± 0.4) | IC50 (PI3Kγ) | Gamma/Delta Ratio (PI3Kγ) | IC50 (PI3Kδ; [3]) | IC50 (PI3Kδ; Example 2 assay conditions, read-out: IC50, δ isoform of PI3K (FIG. 1)) | melting point | Efficacy in the inhibition of histamine release compared with D-026 (basophils; anti-IgE) | Effect on histamine release, basophils stimulated with fMLP (basophils; fMLP stimulus) |
| --- | --- | --- | --- | --- | --- | --- | --- | --- | --- | --- | --- | --- | --- | --- | --- | --- |
| O=c1c2ccccc2nc(CSc2ncnc3[nH]cnc23)n1-c1ccccc1Cl [Compound D-000, 3-(2-chlorophenyl)-2-(9H-purin-6-ylsulfanylmethyl)-3H-quinazolin-4-one] | > 10000 nM | ~2000 nM | 84 | >302 | > 100000 nM | 74% | 91 | almost completely inhibited | 1 | 7700 nM | 23 | 330 nM | ~300 nM | – | – | – |
| O=c1c2c(F)cccc2nc(CSc2ncnc3[nH]cnc23)n1-c1ccccc1Cl [Compound D-015, 3-(2-Chlorophenyl)-5-fluoro-2-(9H-purin-6-ylsulfanylmethyl)-3H-quinazolin-4-one] | – | – | 154 | >480 | – | 69% | 180 | – | – | 3600 nM | 17 | 210 nM | – | 222.7 to 223.8 °C | – | – |
| O=c1c2c(Cl)cccc2nc(CSc2ncnc3[nH]cnc23)n1-c1ccccc1Cl [Compound D-025, 5-Chloro-3-(2-chlorophenyl)-2-(9H-purin-6-ylsulfanylmethyl)-3H-quinazolin-4-one] | – | – | – | >909 | – | 61% | 556 | – | – | 1500 nM | 14 | 110 nM | – | 233.7 to 234.4 °C (dec.) | – | – |
| O=c1c2ccccc2nc(CSc2ncnc3[nH]ncc23)n1-c1ccccc1Cl [Compound D-999, 3-(2-Chlorophenyl)-2-(1H-pyrazolo[3,4-d]pyrimidin-4-ylsulfanylmethyl)-3H-quinazolin-4-one, reference compound] | – | – | 2 | 2.1 | – | 71% | 2 | – | – | 60000 nM | 1.3 | 47000 nM | – | – | less efficacious | Neither compound elicited any effect |
